Measurements taken from BindingDB's records for doi:10.1021/cb400371r (University of Konstanz, 2013).

Tests used:
[1] = biological target: T1, Fucose-binding lectin PA-IIL (Pseudomonas aeruginosa (strain ATCC 15692 / DSM 22644 / CIP 104116 / JCM 14847 / LMG 12228 / 1C / PRS 101 / PAO1), UniProt Q9HYN5)
[2] = biological target: T1, Fucose-binding lectin PA-IIL; remark: listed apart in the source

T1 sequence (Q9HYN5 whole entry): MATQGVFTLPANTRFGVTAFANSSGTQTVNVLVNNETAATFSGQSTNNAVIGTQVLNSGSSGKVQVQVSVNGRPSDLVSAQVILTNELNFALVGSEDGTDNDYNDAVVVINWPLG

For `COC1O[C@H](CNS(=O)(=O)/C=C/c2ccccc2)[C@@H](O)C(O)[C@@H]1O` (some centres not stated) [LecB Inhibitor Sulfonamides 5g], which IC50 [1] is on record?
Its IC50 is 86.9 µM.

How did the IC50 [1] turn out when `COC1O[C@H](Cn2cc(CCc3ccccc3)nn2)[C@@H](O)C(O)[C@@H]1O` (some centres not stated) [LecB Inhibitor Triazoles 2b] was run?
The IC50 was 264 µM.

Which IC50 [1] does the source give for `COC1O[C@H](CNS(=O)(=O)c2ccc([N+](=O)O)cc2)[C@@H](O)C(O)[C@@H]1O` (some centres not stated) [LecB Inhibitor Sulfonamides 5d] here?
Its IC50 is 36.1 µM.

Which results are given for `CC1O[C@@H](OCCNC(=S)Nc2ccc(-c3c4ccc(=O)cc-4oc4cc(O)ccc34)c(C(=O)O)c2)[C@@H](O)C(O)[C@@H]1O` (some centres not stated) [LecB Inhibitor Ligand 6]?
IC50 [1]: 2.74 µM; EC50 [2]: 0.697 µM

For `COC1O[C@H](Cn2cc(-c3ccc(F)cc3)nn2)[C@@H](O)C(O)[C@@H]1O` (some centres not stated) [LecB Inhibitor Triazoles 2g], which IC50 [1] is on record?
The IC50 was 240 µM.

Which IC50 [1] does the source give for `COC1O[C@H](CNS(=O)(=O)c2ccc(C)cc2)[C@@H](O)C(O)[C@@H]1O` (some centres not stated) [LecB Inhibitor Sulfonamides 5b] here?
The IC50 was 49.7 µM.

With `COC1O[C@H](Cn2cc(-c3ccc(C)cc3)nn2)[C@@H](O)C(O)[C@@H]1O` (some centres not stated) [LecB Inhibitor Triazoles 2e] as the compound, how does the IC50 [1] read?
The IC50 was 294 µM.

How did the IC50 [1] turn out when `COC1O[C@H](CNCc2ccc(Cl)cc2)[C@@H](O)C(O)[C@@H]1O` (some centres not stated) [LecB Inhibitor Amines 3d] was run?
Its IC50 is 212 µM.

Which IC50 [1] does the source give for `COC1O[C@H](Cn2cc(-c3ccccc3)nn2)[C@@H](O)C(O)[C@@H]1O` (some centres not stated) [LecB Inhibitor Triazoles 2c] here?
The IC50 was 373 µM.

`COC1O[C@H](CNC(=O)Cc2ccccc2)[C@@H](O)C(O)[C@@H]1O` (some centres not stated) [LecB Inhibitor Amides 4e] was tested. Which IC50 [1] did it give?
The IC50 was 73.8 µM.

With `COC1O[C@H](CNCc2ccc([N+](=O)O)cc2)[C@@H](O)C(O)[C@@H]1O` (some centres not stated) [LecB Inhibitor Amines 3b] as the compound, how does the IC50 [1] read?
Its IC50 is 117 µM.

How did the IC50 [1] turn out when `COC1O[C@H](CNC(=O)c2ccc([N+](=O)O)cc2)[C@@H](O)C(O)[C@@H]1O` (some centres not stated) [LecB Inhibitor Amides 4c] was run?
Its IC50 is 75.8 µM.

`COC1O[C@H](CN)[C@@H](O)C(O)[C@@H]1O` (some centres not stated) [LecB Inhibitor Amines 3e] was tested. Which IC50 [1] did it give?
Its IC50 is 353 µM.

With `COC1O[C@H](Cn2cc(-c3cccc(C)c3)nn2)[C@@H](O)C(O)[C@@H]1O` (some centres not stated) [LecB Inhibitor Triazoles 2d] as the compound, how does the IC50 [1] read?
Its IC50 is 279 µM.

Which IC50 [1] does the source give for `COC1O[C@H](CNCc2ccccc2)[C@@H](O)C(O)[C@@H]1O` (some centres not stated) [LecB Inhibitor Amines 3a] here?
Its IC50 is 227 µM.

Which IC50 [1] does the source give for `COC1O[C@H](CNC(=O)c2cc([N+](=O)O)cc([N+](=O)O)c2)[C@@H](O)C(O)[C@@H]1O` (some centres not stated) [LecB Inhibitor Amides 4d] here?
Its IC50 is 121 µM.

For `COC1O[C@H](Cn2cc(CO)nn2)[C@@H](O)C(O)[C@@H]1O` (some centres not stated) [LecB Inhibitor Triazoles 2a], which IC50 [1] is on record?
The IC50 was 578 µM.

`COC1O[C@H](CNC(C)=O)[C@@H](O)C(O)[C@@H]1O` (some centres not stated) [LecB Inhibitor Amides 4a] was tested. Which IC50 [1] did it give?
The IC50 was 281 µM.

How did the IC50 [1] turn out when `COC1O[C@H](CNS(=O)(=O)c2ccc(Br)cc2)[C@@H](O)C(O)[C@@H]1O` (some centres not stated) [LecB Inhibitor Sulfonamides 5c] was run?
Its IC50 is 20.9 µM.

With `COC1O[C@H](CNC(=O)C(c2ccccc2)c2ccccc2)[C@@H](O)C(O)[C@@H]1O` (some centres not stated) [LecB Inhibitor Amides 4f] as the compound, how does the IC50 [1] read?
Its IC50 is 161 µM.

With `COC1O[C@H](CNCc2ccc(C#N)cc2)[C@@H](O)C(O)[C@@H]1O` (some centres not stated) [LecB Inhibitor Amines 3c] as the compound, how does the IC50 [1] read?
The IC50 was 115 µM.
